Measured values published in patent US20120004257A1, “NOVEL COMPOUNDS” (priority 2010, published 2012).
Structures can show the parent of a compound that is named as a salt.

What was measured:
Type in all cases: biochemical
[1] = system: dopamine (DA) reuptake in synaptosomes; assay: DA reuptake inhibition in synaptosomes; conditions: 3H-DA, read-out: DA-uptake IC50
Excerpt: (§1) Compounds of the invention may be tested for their ability to inhibit reuptake of the monoamines dopamine, noradrenaline and serotonin in synaptosomes e.g. such as described in WO 97/30997 (NeuroSearch A/S) or WO 97/16451 (NeuroSearch A/S). The compounds of the invention may also be tested for their antinociceptive activity e.g. such as described below: Background: formalin injection into the rat hindpaw initiates […] spontaneous nociceptive behaviours consisting of either flinching, and licking and/or biting of the injected paw. The first phase occurs as a direct chemical stimulation of nociceptors, and is followed by a period of relative quiescence called interphase that can be attributed to activation of noxious inhibitory control pathways; primarily 5-HT and NA pathways originating from brainstem nuclei. The second phase occurs as a result of increased primary afferent afferent drive with subsequent sensitization of nociceptive spinal neurones (Coderre et al., 1993). Animals: adult male Sprague-Dawley rats (Harlan Scandinavia, Alleroed, Denmark). The experiments was performed according to the Ethical Guidelines of the International Association for the Study of Pain (Zimmermann, 1983) and the Danish Committee for Experiments on Animals. […] MED and ED50 values were calculated where possible. Data (mean+/−SEM) were analyzed using one way ANOVA followed by Bonferonni's t test. […]

[2] = system: noradrenaline (NA) reuptake in synaptosomes; assay: NA reuptake inhibition in synaptosomes; conditions: 3H-NA, read-out: NA-uptake IC50
Excerpt: as §1

[3] = system: serotonine (5-HT) reuptake in synaptosomes; assay: 5-HT reuptake inhibition in synaptosomes; conditions: 3H-5-HT, read-out: 5-HT-uptake IC50
Excerpt: as §1

## CCc1cc2ccc(O[C@@H]3C[C@H]4CC[C@@H](C3)N4)cc2oc1=O [Compound 1.1, exo-7-[(8-Aza-bicyclo[3.2.1]oct-3-yl)oxy]-3-ethyl-chromen-2-one hydrochloride]
[1]
  IC50: 500 nM
[2]
  IC50: 47 nM
[3]
  IC50: 7.8 nM
